US11649242B2, “Pyrrolopyrrole compositions as pyruvate kinase (PKR) activators” (FORMA Therapeutics, Inc., priority 2017, dated 2023)

What was measured:
Assay type in all cases: biochemical
[1] = target: PKR(wt) (Homo sapiens, UniProt P30613); experiment: Luminescence Assay Protocol (Kinase Glo Plus), PKR(Wt/without FBP); conditions: without FBP; for activation at 1.54 µM: compound 1.54 μM, read-out: I - AC50 LUM KGP woFBP % Fold @ 1.54 μM mean; for AC50: gmean, read-out: G - AC50 LUM KGP woFBP AC50 μM gmean; for Emax: highest % fold increase at any concentration, read-out: H - AC50 LUM KGP woFBP MAX % FOLD mean
Protocol: (§1) Example 47: PKR(Wt/without FBP), PKR(G332S/with FBP), PKR(R510Q/without FBP)
(§2) The phosphorylation of Adenosine-5′-diphosphate (ADP) by various mutants of PKR was determined by the Kinase Glo Plus Assay (Promega) in the presence or absence of FBP [D-Fructose-1,6-diphosphate; BOC Sciences, CAS: 81028-91-3] as follows. Unless otherwise indicated, all reagents were purchased from Sigma-Aldrich. All reagents were prepared in buffer containing 50 mM Tris-HCl, 100 mM KCl, 5 mM MgCl2, and 0.01% Triton X100, 0.03% BSA, and 1 mM DTT. Enzyme and PEP [Phospho(enol) pyruvic acid] were added at 2× to all wells of an assay-ready plate containing serial dilutions of test compounds or DMSO vehicle. Final enzyme concentrations for PKR(wt), PKR(R510Q), and PKR(G332S) were 0.8 nM, 0.8 nM, and 10 nM respectively. Final PEP concentration was 100 μM. The Enzyme/PEP mixture was incubated with compounds for 30 minutes at RT before the assay was initiated with the addition of 2×ADP [Adenosine-5′-diphosphate] and KinaseGloPlus. Final concentration of ADP was 100 μM. […] For assays containing FBP, that reagent is added at 30 μM upon reaction initiation. Reactions were allowed to progress for 45 minutes at RT until luminescence was recorded by the BMG PHERAstar FS Multilabel Reader. All compounds were tested in triplicate at concentrations ranging from 42.5 μM to 2.2 nM in 0.83% DMSO.
(§3) Luminescence values were converted to % Fold increase by normalizing to the average of the DMSO control and multiplying by 100. Max, min, slope and AC50 were determined by the standard four parameter fit algorithm of ActivityBase XE Runner. Compounds were evaluated with three parameters—AC50, MAX % Fold, and % Fold@1.54 μM (FIG. 1). The AC50 value for a compound is the concentration […] corresponding to the midway between the maximum and minimum values of the four parameter logistic curve fit (i.e., at which the % fold increase along the four parameter logistic curve fit is halfway between MAX % Fold and MIN % Fold (% Fold Midpoint)), MAX % Fold is the highest fold increase observed at any concentration of compound, and % Fold@1.54 μM is the fold increase at a compound concentration of 1.54 μM. The parameter % Fold@1.54 μM was selected to capture elements of both the AC50 and MAX % Fold and to provide a ranking based on both potency and effect. The compound concentration of 1.54 μM was chosen as one that can optimally differentiate the set of compounds based on the range of activities observed.
(§4) As set forth in Tables 6 and 7 below, AC50 values (columns A, D, G) are defined as follows: ≤0.1 μM (+++); >0.1 μM and ≤1.0 μM (++); >1.0 μM and ≤40 μM (+); >40 μM (0). Max % FOLD values (columns B, E, H) are defined as follows: ≤75% (+); >75% and ≤250% (++); >250% and ≤500% (+++). % Fold@1.54 μM values (columns C, F, I) are defined as follows: ≤75% (+); >75% and ≤250% (++); >250% and ≤500% (+++).

[2] = target: PKR(R510Q) (Homo sapiens, UniProt P30613, R510Q); experiment: Luminescence Assay Protocol (Kinase Glo Plus), PKR(R510Q/without FBP); conditions: PKRR510Q, without FBP; for activation at 1.54 µM: compound 1.54 μM, read-out: F - AC50 LUM KGP woFBP % Fold @ 1.54 μM mean; for AC50: gmean, read-out: D - AC50 LUM KGP woFBP AC50 μM gmean; for Emax: read-out: E - AC50 LUM KGP woFBP MAX % FOLD mean
Protocol: as §1, §2, §3, §4

[3] = target: PKR(G332S) (Homo sapiens, UniProt P30613, G332S); experiment: Luminescence Assay Protocol (Kinase Glo Plus), PKR(G332S/with FBP); conditions: PKRG332S, with FBP; for AC50: gmean, read-out: A - AC50 LUM KGP FBP AC50 μM gmean; for activation at 1.54 µM: compound 1.54 μM, read-out: C - AC50 LUM KGP FBP % Fold @ 1.54 μM mean; for Emax: highest % fold increase at any concentration, read-out: B - AC50 LUM KGP FBP MAX % FOLD mean
Protocol: as §1, §2, §3, §4

[4] = highest % fold increase at any concentration

PKR(wt), sequence (P30613 whole entry): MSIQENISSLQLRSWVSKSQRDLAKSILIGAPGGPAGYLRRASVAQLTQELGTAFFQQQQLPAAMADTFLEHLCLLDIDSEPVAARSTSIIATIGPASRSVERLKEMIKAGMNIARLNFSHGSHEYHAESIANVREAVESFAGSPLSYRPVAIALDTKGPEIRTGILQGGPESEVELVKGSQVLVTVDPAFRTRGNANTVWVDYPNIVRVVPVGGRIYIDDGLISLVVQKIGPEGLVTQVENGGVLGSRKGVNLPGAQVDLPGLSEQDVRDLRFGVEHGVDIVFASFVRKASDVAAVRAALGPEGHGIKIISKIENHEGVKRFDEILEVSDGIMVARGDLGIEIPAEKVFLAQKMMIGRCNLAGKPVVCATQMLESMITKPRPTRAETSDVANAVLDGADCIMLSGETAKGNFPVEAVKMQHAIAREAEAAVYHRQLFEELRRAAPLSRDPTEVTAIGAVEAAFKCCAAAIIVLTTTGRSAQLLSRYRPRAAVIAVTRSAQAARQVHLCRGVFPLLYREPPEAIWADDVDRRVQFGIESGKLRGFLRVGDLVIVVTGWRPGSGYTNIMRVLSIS
PKR(G332S), sequence (P30613 whole entry G332S): as the sequence (P30613 whole entry) above, with G332S counted along it
PKR(R510Q), sequence (P30613 whole entry R510Q): as the sequence (P30613 whole entry) above, with R510Q counted along it

| Compound | activation at 1.54 µM [1] | AC50 [1] | Emax [1] | activation at 1.54 µM [2] | AC50 [2] | E - AC50 LUM KGP woFBP MAX % FOLD mean [2, 4] | AC50 [3] | activation at 1.54 µM [3] | Emax [3] | Emax [2, 4] |
| --- | --- | --- | --- | --- | --- | --- | --- | --- | --- | --- |
| O=C(C(CO)c1ccccn1)N1CC2=C(C1)CN(S(=O)(=O)c1cnc3c(c1)OCCO3)C2 (single isomer, unassigned) [Example 4, (S or R)-1-(5-((2,3-dihydro-[1,4]dioxino[2,3-b]pyridin-7-yl)sulfonyl)-3,4,5,6-tetrahydropyrrolo[3,4-c]pyrrol-2(1H)-yl)-3-hydroxy-2-(pyridin-2-yl)propan-1-one] | 75 to 250% | 1 to 40 µM | 75 to 250% | 75 to 250% | 1 to 40 µM | ++ (>75% and ≤250% (++)) | – | – | – | – |
| O=C(C(CO)c1ccccn1)N1CC2=C(C1)CN(S(=O)(=O)c1ccc(OC(F)F)cc1)C2 (single isomer, unassigned) [Example 42, (R or S)-1-(5-((4-(difluoromethoxy)phenyl)sulfonyl)-3,4,5,6-tetrahydropyrrolo[3,4-c]pyrrol-2(1H)-yl)-3-hydroxy-2-(pyridin-2-yl)propan-1-one] | – | – | – | – | – | – | ≤ 0.1 µM | – | – | – |
| O=C(C(CO)c1ccccc1)N1CC2=C(C1)CN(S(=O)(=O)c1ccc3occc3c1)C2 (stereo not shown) [Example 8, 1-(5-(benzofuran-5-ylsulfonyl)-3,4,5,6-tetrahydropyrrolo[3,4-c]pyrrol-2(1H)-yl)-3-hydroxy-2-phenylpropan-1-one] | 250 to 500% | ≤ 0.1 µM | 250 to 500% | – | – | – | – | – | – | – |
| CC(C)(CO)C(=O)N1CC2=C(C1)CN(S(=O)(=O)c1ccc3occc3c1)C2 [Example 9, 1-(5-(benzofuran-5-ylsulfonyl)-3,4,5,6-tetrahydropyrrolo[3,4-c]pyrrol-2(1H)-yl)-3-hydroxy-2,2-dimethylpropan-1-one] | 75 to 250% | ≤ 0.1 µM | 75 to 250% | – | – | – | – | – | – | – |
| CC(CO)(CO)C(=O)N1CC2=C(C1)CN(S(=O)(=O)c1ccc3occc3c1)C2 [Example 10, 1-(5-(benzofuran-5-ylsulfonyl)-3,4,5,6-tetrahydropyrrolo[3,4-c]pyrrol-2(1H)-yl)-3-hydroxy-2-(hydroxymethyl)-2-methylpropan-1-one] | 75 to 250% | ≤ 0.1 µM | 250 to 500% | – | – | – | – | – | – | – |
| CCC(CO)(CO)C(=O)N1CC2=C(C1)CN(S(=O)(=O)c1ccc3occc3c1)C2 [Example 11, 1-(5-(benzofuran-5-ylsulfonyl)-3,4,5,6-tetrahydropyrrolo[3,4-c]pyrrol-2(1H)-yl)-2,2-bis(hydroxymethyl)butan-1-one] | 75 to 250% | 0.1 to 1 µM | 250 to 500% | – | – | – | – | – | – | – |
| O=C([C@@H]1CCOC1)N1CC2=C(C1)CN(S(=O)(=O)c1ccc3occc3c1)C2 [Example 12, (R)-(5-(benzofuran-5-ylsulfonyl)-3,4,5,6-tetrahydropyrrolo[3,4-c]pyrrol-2(1H)-yl)(tetrahydrofuran-3-yl)methanone] | 250 to 500% | 0.1 to 1 µM | 250 to 500% | – | – | – | – | – | – | – |
| O=C([C@H]1CCOC1)N1CC2=C(C1)CN(S(=O)(=O)c1ccc3occc3c1)C2 [Example 13, (S)-(5-(benzofuran-5-ylsulfonyl)-3,4,5,6-tetrahydropyrrolo[3,4-c]pyrrol-2(1H)-yl)(tetrahydrofuran-3-yl)methanone] | 75 to 250% | 0.1 to 1 µM | 250 to 500% | – | – | – | – | – | – | – |
| COCC1(C(=O)N2CC3=C(C2)CN(S(=O)(=O)c2ccc4occc4c2)C3)CC1 [Example 17, (5-(benzofuran-5-ylsulfonyl)-3,4,5,6-tetrahydropyrrolo[3,4-c]pyrrol-2(1H)-yl)(1-(methoxymethyl)cyclopropyl)methanone] | 75 to 250% | 0.1 to 1 µM | 75 to 250% | – | – | – | – | – | – | – |
| O=C(C(CO)c1ccccc1)N1CC2=C(C1)CN(S(=O)(=O)c1ccc3c(c1)OCCO3)C2 (stereo not shown) [Example 18, 1-(5-((2,3-dihydrobenzo[b][1,4]dioxin-6-yl)sulfonyl)-3,4,5,6-tetrahydropyrrolo[3,4-c]pyrrol-2(1H)-yl)-3-hydroxy-2-phenylpropan-1-one] | – | – | – | 75 to 250% | ≤ 0.1 µM | – | > 40 µM | 75 to 250% | 75 to 250% | 75 to 250% |
| Cc1nc2ccc(S(=O)(=O)N3CC4=C(CN(C(=O)C(C)(C)CO)C4)C3)cc2o1 [Example 21, 3-hydroxy-2,2-dimethyl-1-(5-((2-methylbenzo[d]oxazol-6-yl)sulfonyl)-3,4,5,6-tetrahydropyrrolo[3,4-c]pyrrol-2(1H)-yl)propan-1-one] | 75 to 250% | 1 to 40 µM | 75 to 250% | – | – | – | – | – | – | – |
| O=C(CCO)N1CC2=C(C1)CN(S(=O)(=O)c1ccc3occc3c1)C2 [Example 22, 1-(5-(benzofuran-5-ylsulfonyl)-3,4,5,6-tetrahydropyrrolo[3,4-c]pyrrol-2(1H)-yl)-3-hydroxypropan-1-one] | 250 to 500% | 0.1 to 1 µM | 250 to 500% | – | – | – | – | – | – | – |
| C[C@@H](O)CC(=O)N1CC2=C(C1)CN(S(=O)(=O)c1ccc3occc3c1)C2 [Example 23, (R)-1-(5-(benzofuran-5-ylsulfonyl)-3,4,5,6-tetrahydropyrrolo[3,4-c]pyrrol-2(1H)-yl)-3-hydroxybutan-1-one] | 250 to 500% | 0.1 to 1 µM | 250 to 500% | – | – | – | – | – | – | – |
| C[C@H](O)CC(=O)N1CC2=C(C1)CN(S(=O)(=O)c1ccc3occc3c1)C2 [Example 24, (S)-1-(5-(benzofuran-5-ylsulfonyl)-3,4,5,6-tetrahydropyrrolo[3,4-c]pyrrol-2(1H)-yl)-3-hydroxybutan-1-one] | 75 to 250% | 0.1 to 1 µM | 250 to 500% | – | – | – | – | – | – | – |
| CC(C)(O)CC(=O)N1CC2=C(C1)CN(S(=O)(=O)c1ccc3occc3c1)C2 [Example 25, 1-(5-(benzofuran-5-ylsulfonyl)-3,4,5,6-tetrahydropyrrolo[3,4-c]pyrrol-2(1H)-yl)-3-hydroxy-3-methylbutan-1-one] | 75 to 250% | 0.1 to 1 µM | 250 to 500% | – | – | – | – | – | – | – |
| COc1ccc(S(=O)(=O)N2CC3=C(CN(C(=O)CCO)C3)C2)cc1 [Example 40, 3-hydroxy-1-(5-((4-methoxyphenyl)sulfonyl)-3,4,5,6-tetrahydropyrrolo[3,4-c]pyrrol-2(1H)-yl)propan-1-one] | – | – | – | 75 to 250% | 1 to 40 µM | – | – | – | – | 250 to 500% |
| O=C(CCO)N1CC2=C(C1)CN(S(=O)(=O)c1ccc(OC(F)F)cc1)C2 [Example 54, 1-(5-((4-(difluoromethoxy)phenyl)sulfonyl)-3,4,5,6-tetrahydropyrrolo[3,4-c]pyrrol-2(1H)-yl)-3-hydroxypropan-1-one] | 75 to 250% | 1 to 40 µM | 250 to 500% | 75 to 250% | 1 to 40 µM | – | – | – | – | 250 to 500% |
| O=C(C1COCCN1)N1CC2=C(C1)CN(S(=O)(=O)c1ccc3ncsc3c1)C2 (stereo not shown) [Example 56, (5-(benzo[d]thiazol-6-ylsulfonyl)-3,4,5,6-tetrahydropyrrolo[3,4-c]pyrrol-2(1H)-yl)(morpholin-3-yl)methanone] | – | – | – | 75 to 250% | 1 to 40 µM | – | > 40 µM | 75 to 250% | 75 to 250% | 75 to 250% |
